Source: patent US9096591B2, “Tetracyclic compounds” (Medivation Technologies, Inc., priority 2007, dated 2015)

What was measured:
mice = experiment: recognition test of new location of a known object (spatial memory); format: in vivo; conditions: for overall effect on memory (in words): doses 0.05-1 mg/kg
AMPA receptors = experiment: AMPA-receptor activity: kainic acid-induced currents in Purkinje cells (patch-clamp); format: cell-based, rat; conditions: mean±SEM, control=100%
Experimental: The analysis of effects of the testing compounds on AMPA receptors was carried out using an electrophysiological patch-clamp method in whole cell configuration (Hamill et al., 1980) of the Purkinje cell fresh isolated from the cerebellum of juvenile rats (12-15 days). The isolation was carried out using a modified method (Kaneda et al., 1988) in which cerebral 400-600 μm sections were incubated for 60 min in the temperature controlled chamber in 10 mL of buffer solution (150 mM NaCl, 5 mM KCl, 2 mM CaCl2, 2 mM MgSO4.7H2O, 10 mM HEPES, 15 mM glucose, pH 7.42). The incubation solution was exchanged with the incubation buffer with pronase (2 mg/mL) and collagenase (1 mg/mL) for 70 min. After a 20 min wash with the original buffer, all sections were placed into the Petri dish and were separated using a Pasteur pipette. All solutions were constantly aerated with 100% O2 at 34° C. The composition of extracellular saline was: 150 mM NaCl, 5 mM KCl, 2.6 mM CaCl2, 2 mM MgSO4.7H2O, 10 mM HEPES, 15 mM glucose, pH 7.36. The transmembrane current was induced as a result of the activation of AMPA receptors by a superfusion with the agonist solution (kainic acid). The currents were measured using borosilicate microelectrodes (resistance […]) filled with 100 mM KCl, 11 mM EGTA, 1 mM CaCl2, 1 mM MgCl2, 10 mM HEPES, 5 mM ATP, pH 7.2. The currents were registered using EPC-9 (HEKA, Germany) and recorded with Pulse software package which was also purchased from HEKA. The analysis of observations was carried out using Pulsefit (HEKA, Germany) and the statistical significance was analyzed using a Student's T-test criteria. Data are presented as mean±SEM in % of control values.
Compounds of the invention were tested in 3-5 neurons. Every concentration of compound was repeated three-four times in every neuron. Data are presented as mean±SEM in % of Control values (Table 13+14, FIGS. 8-12). Control value=100%.

[1] = tested on: adrenergic receptors α1D, α2A, α2B; serotonin receptor 5-HT6; dopamine receptor D2L; experiment: Classification of compounds (Type 1-4) from receptor binding and neurite outgrowth
Text: Compounds of the invention that inhibit binding of a ligand to adrenergic receptors α1D, α2A, α2B and serotonin receptor 5-HT6 by at least about 80% as determined in a suitable assay such as the assays described herein can be classified as Type 1 compounds. […] In one variation, binding of a ligand to serotonin receptor 5-HT7 is at least about 80%. […] Weak inhibition of binding of a ligand to the histamine H1 receptor is permitted as agonists of this receptor have been implicated in stimulating memory as well as weight gain. In one variation, binding to histamine receptor H1 is inhibited by less than about 80%. […] Compounds that inhibit binding of a ligand to the dopamine D2L receptor by at least about 80% as determined in a suitable assay such as the assay described herein can be classified as Type 2 compounds.
In one variation, Type 1 compounds further inhibit binding of a ligand to dopamine receptor D2L by less than about 80% as determined in a suitable assay known in the art such as the assay described herein. […] In one variation, binding of a ligand to serotonin receptor 5-HT7, 5-HT2A and/or 5-HT2C is inhibited by at least about 80% as determined in a suitable assay such as the assays described herein. […] In one variation, binding of a ligand to histamine receptor H1 and/or H2 is inhibited by less than about 80% as determined by a suitable assay known in the art such as the assays described herein.
In one variation, biding to serotonin receptor 5-HT2A is inhibited by at least about 80% as determined in a suitable assay know in the art such as the assay described herein.

[2] = molecular target: human recombinant dopamine D2S receptor (Homo sapiens, UniProt P14416); experiment: Dopamine D2S antagonist activity ([35S]GTPγS binding, SPA); format: biochemical; conditions: for Antagonist Activity As Measured by % Inhibition D2S / inhibition at 0.03 µM / inhibition at 0.1 µM / inhibition at 0.3 µM: two values = assay run twice; for inhibition at 0.03 µM / inhibition at 0.1 µM / inhibition at 0.3 µM / inhibition at 1 µM / inhibition at 3 µM: read-out: Antagonist Activity As Measured by % Inhibition D2S
Experimental: To determine for agonist or antagonist activity of compounds of the invention in functional assays, human recombinant dopamine D2S receptor stably expressed in Chinese hamster ovary (CHO) cells (Gilliland S L and Alper R H. Naunyn-Schmiedeberg's Archives of Pharmacology. 361: 498, 2000) was used. Compounds of invention were pre-incubated with the membranes (0.05 mg/ml) and 3 μM GDP in modified HEPES buffer (20 mM HEPES, pH 7.4, 100 mM NaCl, 10 mM MgCl2, 1 mM DTT, 1 mM EDTA) for 20 minutes and Scintillation Proximity Assay (SPA) beads were then added for another 60 minutes at 30° C. The reaction was initiated by 0.3 nM [^35S]GTPγS for an additional 30 minute incubation period. […] Compounds were screened at 3 μM or lower, using 0.4% DMSO as vehicle. Assay results are presented as the percent response of specific binding in Table 9.

Sequence of human recombinant dopamine D2S receptor (P14416 1-414 isoform P14416-2): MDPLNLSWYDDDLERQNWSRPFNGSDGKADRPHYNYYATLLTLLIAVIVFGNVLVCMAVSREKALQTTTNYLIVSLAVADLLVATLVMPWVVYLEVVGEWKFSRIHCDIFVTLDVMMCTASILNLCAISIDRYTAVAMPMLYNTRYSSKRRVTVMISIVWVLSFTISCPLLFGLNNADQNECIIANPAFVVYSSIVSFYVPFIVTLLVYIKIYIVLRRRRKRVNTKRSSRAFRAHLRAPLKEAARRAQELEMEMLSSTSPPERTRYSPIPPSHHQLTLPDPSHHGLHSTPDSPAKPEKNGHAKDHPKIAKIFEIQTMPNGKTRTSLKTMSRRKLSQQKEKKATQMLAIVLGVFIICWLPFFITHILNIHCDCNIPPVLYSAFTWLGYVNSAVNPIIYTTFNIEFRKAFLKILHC

| Structure (SMILES) | Influence on memory in the test recognition new localization of known object (mice; Dose of Compound 0.05 mg/kg) | Influence on memory in the test recognition new localization of known object (mice; Dose of Compound 0.1 mg/kg) | Influence on memory in the test recognition new localization of known object (mice; Dose of Compound 0.5 mg/kg) | Influence on memory in the test recognition new localization of known object (mice; Dose of Compound 1.0 mg/kg) | effect of the dose on exploration time / memory (in words) (mice; mice, dose 0.05 mg/kg) | overall effect on memory (in words) (mice; mice) | kainic acid-induced currents in Purkinje cells, % of Control values (AMPA receptors; compound 10^−5 M) [%] | kainic acid-induced currents in Purkinje cells, % of Control values (AMPA receptors; compound 10^−6 M) [%] | kainic acid-induced currents in Purkinje cells, % of Control values (AMPA receptors; compound 10^−7 M) [%] | kainic acid-induced currents in Purkinje cells, % of Control values (AMPA receptors; compound 10^−8 M) [%] | kainic acid-induced currents in Purkinje cells, % of Control values (AMPA receptors; compound 10^−9 M) [%] | compound type (classification by receptor binding profile and neurite outgrowth) [1] | kainic acid-induced currents in Purkinje cells, % of Control values (AMPA receptors; compound 3 × 10^−5 M) [%] | other results |
| --- | --- | --- | --- | --- | --- | --- | --- | --- | --- | --- | --- | --- | --- | --- |
| Cc1ccc2c(c1)c1c(n2CCc2nc(-c3ccccc3)cs2)CCN(C)C1 [Compound C1-5] | − | + | − | + | no effect | stimulating effect on memory | 126 ± 18 | 64 ± 23 | 70 ± 23 | 62 ± 12 | 64 ± 8 |  |  | activity on memory compared with dimebon (in words) (mice; comparison of effective doses): at a level dimebon; time exploring the object in a new location, % of the total time (mice; mice, dose 0.1 mg/kg): 57.9±7.5%; time exploring the object in the known position, % of the total time (mice; mice, dose 0.1 mg/kg): 42.1±7.5%; effect of the dose on exploration time / memory (in words) (mice; mice, dose 0.5 mg/kg): disappearance of the stimulating effect on memory; time exploring the object in a new location, % of the total time (mice; mice, dose 1 mg/kg): 57.4±8.4%; time exploring the object in the known position, % of the total time (mice; mice, dose 1 mg/kg): 42.6±8.4% |
| CCOc1ccc(CCn2c3c(c4cc(C)ccc42)CN(C)CC3)cc1 [Compound 334, 5-[2-(4-Ethoxy-phenyl)-ethyl]-2,8-dimethyl-2,3,4,5-tetrahydro-1H-pyrido[4,3-b]indole] |  |  |  |  |  |  |  |  |  |  |  | Type one |  |  |
| COc1ccc2c(c1)c1c(n2CCc2nc(-c3ccccc3)cs2)CCN(C)C1 [Compound C1-6] |  |  |  |  |  |  | 135 ± 1 | 146 ± 12 | 116 ± 7 | 101 ± 4 | 100 ± 3 |  | 130 ± 6 |  |
| Cc1ccc(CCn2c3c(c4cc(Br)ccc42)CN(C)CC3)cn1 [Compound 487, 8-bromo-2-methyl-5-(2-(6-methylpyridin-3-yl)ethyl)-2,3,4,5-tetrahydro-1H-pyrido[4,3-b]indole] |  |  |  |  |  |  |  |  |  |  |  | Type one |  |  |
| CN1CCc2c(c3cc(Cl)ccc3n2CCc2ccccc2)C1 [Compound 36, 8-chloro-2,3,4,5-tetrahydro-2-methyl-5-phenethyl-1H-pyrido[4,3-b]indole] |  |  |  |  |  |  |  |  |  |  |  |  |  | Antagonist Activity As Measured by % Inhibition D2S ([2]; 0.03 uM): 85%; inhibition at 0.03 µM ([2]; 0.03 uM): 76%; inhibition at 0.1 µM ([2]; 0.1 uM): 97%; Antagonist Activity As Measured by % Inhibition D2S ([2]; 0.3 uM): 104%; inhibition at 0.3 µM ([2]; 0.3 uM): 98%; inhibition at 1 µM [2]: 102%; inhibition at 3 µM [2]: 107% |
| CN1CCc2c(c3ccccc3n2CCc2noc(-c3ccccc3)n2)C1 [Compound C4-1] | − | + | − | − |  |  | 97 ± 4 | 110 ± 5 | 115 ± 3 | 147 ± 11 | 125 ± 6 |  |  |  |
| Cc1ccc2c(c1)c1c(n2CCc2noc(-c3ccccc3)n2)CCN(C)C1 [Compound C4-4] | − | + | + | + | no effect | activating effect on memory | 150 ± 26 | 142 ± 11 | 147 ± 15 | 129 ± 5 | 100 |  | 150 ± 20 | time after training for which the activating effect on memory is preserved (mice; mice): about 48 hours; time exploring the object in a new location, % of the total time (mice; mice, dose 0.1 mg/kg): 58.5±9.6%; time exploring the object in the known position, % of the total time (mice; mice, dose 0.1 mg/kg): 41.5±9.6%; time exploring the object in a new location, % of the total time (mice; mice, dose 0.5 mg/kg): 59.1±4.2%; time exploring the object in the known position, % of the total time (mice; mice, dose 0.5 mg/kg): 40.9±4.2% |
| COc1ccc(CCn2c3c(c4cc(C)ccc42)CN(C)CC3)cc1 [Compound 247] |  |  |  |  |  |  |  |  |  |  |  |  |  | Antagonist Activity As Measured by % Inhibition D2S ([2]; 0.03 uM): 68%; inhibition at 0.03 µM ([2]; 0.03 uM): 67%; Antagonist Activity As Measured by % Inhibition D2S ([2]; 0.1 uM): 89%; inhibition at 0.1 µM ([2]; 0.1 uM): 97%; Antagonist Activity As Measured by % Inhibition D2S ([2]; 0.3 uM): 93%; inhibition at 0.3 µM ([2]; 0.3 uM): 81%; inhibition at 1 µM [2]: 110%; inhibition at 3 µM [2]: 108% |
| CN1CCc2c(c3cc(Cl)ccc3n2CCc2noc(-c3ccccc3)n2)C1 [Compound C4-6] | − | − | + | + | not effective | stimulated memory | 152 ± 30 | 140 ± 25 | 120 ± 20 | 100 ± 3 |  |  | 149 ± 33 | activity on memory: times weaker than dimebon (mice; comparison of effective doses): approximately 5 times; effect of the dose on exploration time / memory (in words) (mice; mice, dose 0.1 mg/kg): not effective; time exploring the object in a new location, % of the total time (mice; mice, dose 0.5 mg/kg): 61.0±4.8%; time exploring the object in the known position, % of the total time (mice; mice, dose 0.5 mg/kg): 39.0±4.8%; time exploring the object in a new location, % of the total time (mice; mice, dose 1 mg/kg): 56.3±7.7%; time exploring the object in the known position, % of the total time (mice; mice, dose 1 mg/kg): 43.7±7.7% |
| CN1CCc2c(c3cc(I)ccc3n2CCc2ccccc2F)C1 [Compound 89, 5-(2-fluorophenethyl)-2,3,4,5-tetrahydro-8-iodo-2-methyl-1H-pyrido[4,3-b]indole] |  |  |  |  |  |  |  |  |  |  |  | Type one |  |  |
